What all share (type): in vivo
For one experiment, the system named is radish young plants. Kind of experiment: Dwarfing test of radish young plant. As to conditions: for Plant Height / Dwarfing Rate: 5 ml per cell on 4th day, measured 20th day; for Dwarfing Rate: vs comparative group. How it is done: (§1) 50 g of sodium tripolyphosphate was dissolved in 400 ml of distilled water at 80° C., 17.5 g of cinnamic acid was added to the sodium tripolyphosphate solution and dissolved by stirring, the resultant solution was diluted with distilled water until the total volume of solution was 500 ml, and thus 3.5% cinnamic acid aqueous solution (pH 6.5) was prepared. The aqueous solution was further diluted with distilled water 70 times or 17.5 times, and 0.05% cinnamic acid aqueous solution and 0.2% cinnamic acid aqueous solution were prepared, respectively.
(§2) Nursery soil for house use was filled into paper joint pots (each with 24 cells: 34×43×50 mm/cell), water was sufficiently given to the soil, and seeds of carrots were sowed. After seeding, the pot was placed in the same greenhouse as described above to sprout. Subsequently, on the 5th day, the cinnamic aqueous acid solutions were added to the nursery soil in the joint pots. One of the joint pots (24 cells) was prepared as a 0.05% cinnamic acid aqueous solution addition group, and 5 ml of the 0.05% cinnamic acid aqueous solution was added to the nursery soil of each cell. Another one of the join pots was prepared as a 0.2% cinnamic acid aqueous solution addition group, and 5 ml of the 0.2% cinnamic acid aqueous solution was added to the nursery soil of each cell. The other one of the joint pots was prepared as a comparative group in which 5 ml of water is added to each cell, instead of the cinnamic acid aqueous solution. Subsequently, the cultivation of carrot young plants in each group was continued under general conditions. On the 27th day, the heights of young plants in each group were measured, the dwarfing rate (%) was calculated, and the dwarfing effect of cinnamic acid aqueous solution on carrot young plants was examined. […].
In the same way as in Example 12 except that seeds of radish were sowed, the dwarfing effect of cinnamic acid aqueous solution on radish young plants was examined. […]

The subject of a further experiment is Poinsettia young plants. Kind of experiment: Dwarfing test of poinsettia young plant. As to conditions: for Plant Height / Dwarfing Rate: 100 ml per pot to nursery soil on 49th and 78th days, measured 93rd day; for Dwarfing Rate: vs comparative group. The protocol:
18.4 g of potassium hydroxide was dissolved in 400 ml of distilled water at 20° C., 50 g of cinnamic acid was added to the potassium hydroxide solution and dissolved by stirring, the resultant solution was diluted with distilled water until the total volume of solution was 500 ml, and thus a cinnamic acid aqueous solution (pH 8.8) was prepared in a concentration of 10%. The aqueous solution was further diluted with distilled water 33.3 times or 20 times, and thus a cinnamic acid aqueous solution in a concentration of 0.3% or 0.5% was prepared, respectively.
Poinsettia young plants with heights of about 10 cm were planted and fixed in pots (diameter of 14.5 cm and depth of 14.5 cm), and cultivated continuously. On the 49th and 78th days, 100 ml of 0.3% or 0.5% cinnamic acid aqueous solution prepared as described above was added to the nursery soil of each of 30 pots, and thus 0.3% cinnamic acid aqueous solution addition group and 0.5% cinnamic acid aqueous solution addition group were obtained. Further, 30 pots were prepared as a comparative group on which general watering was performed. The cultivation of young plants of each group was continued. On the 93rd day, the length from a surface of the soil of each cultivation pot to a head portion of the poinsettia young plant was measured, the dwarfing rate (%) was calculated using the following equation, and thus the dwarfing effect of cinnamic acid aqueous solution was examined (the same way was applied to following examples).
Dwarfing rate (%)=[(the plant height of the comparative group)−(the plant height of an addition group)/the plant height of the comparative group]×100
In addition, “plant height” in all the tables below was an average of heights from a surface of the soil of a pot used in each test to a head portion of the plant.

For experiment [1], the system named is Cucumis melo var. makuwa young plants. Description: Dwarfing test of Cucumis melo var. makuwa young plant. As to conditions: for Plant Height / Dwarfing Rate: 5 ml per cell on 7th day, measured 27th day; for Dwarfing Rate: vs comparative group. How it is done:
as §1, §2
(§3) In the same way as in Example 12 except that seeds of tomato were sowed, and that the cinnamic acid solutions were added to the nursery soil of the joint pot on the 7th day, the dwarfing effect of cinnamic acid aqueous solution on tomato young plants was examined. […].
(§4) In the same way as in Example 17 except that seeds of watermelon were sowed, and that plant heights were measured on the 27th day, the dwarfing effect of cinnamic acid aqueous solution on watermelon young plants was examined. […].
In the same way as in Example 21 except that seeds of Cucumis melo var. makuwa were sowed, the dwarfing effect of cinnamic acid aqueous solution on Cucumis melo var. makuwa young plants was examined. […]

For experiment [2], the system named is prince melon young plants. Description: Dwarfing test of prince melon young plant. As to conditions: for Plant Height / Dwarfing Rate: 5 ml per cell on 7th day, measured 27th day; for Dwarfing Rate: vs comparative group. The protocol: as §1, §2, §3, §4
In the same way as in Example 21 except that seeds of prince melon were sowed, the dwarfing effect of cinnamic acid aqueous solution on prince melon young plants was examined. […]

For the compound `O=C(O)C=Cc1ccccc1` [cinnamic acid], the “Plant Height” value with radish young plants (0.05% aqueous solution) worked out at 8.1 cm; in the experiment with radish young plants (0.2% aqueous solution) it was 7.1 cm; in the experiment on Poinsettia young plants (0.3% aqueous solution) it was 19.2 cm; in the experiment with Poinsettia young plants (0.5% aqueous solution) it was 18.1 cm; in experiment [1] (0.05% aqueous solution), 6.1 cm; in experiment [1] (0.2% aqueous solution) it was 4.7 cm. Also, the “Plant Height” value in experiment [2] (0.05% aqueous solution) came to 5.3 cm; in experiment [2] (0.2% aqueous solution) it was 4.1 cm. For the same compound, the “Dwarfing Rate” value amounted to 11.0% with radish young plants (0.05% aqueous solution); 22.0% with radish young plants (0.2% aqueous solution); 17.6% in the experiment on Poinsettia young plants (0.3% aqueous solution); 22.3% in the experiment with Poinsettia young plants (0.5% aqueous solution); 6.2% in experiment [1] (0.05% aqueous solution); 27.7% in experiment [1] (0.2% aqueous solution). Moreover, the “Dwarfing Rate” value in experiment [2] (0.05% aqueous solution) is on record as 5.4%; in experiment [2] (0.2% aqueous solution), 26.8%. Moreover, the dwarfing effect entry in the experiment on radish young plants (radish young plants, 0.05% and 0.2% aqueous solutions) was “effective”; with Poinsettia young plants (poinsettia young plants, 0.3% and 0.5% aqueous solutions), “effective”; in experiment [1] (Cucumis melo var. makuwa young plants, 0.05% and 0.2% aqueous solutions) it was “effective”; in experiment [2] (prince melon young plants, 0.05% and 0.2% aqueous solutions), “effective”.

The record behind these values is patent US20040200144A1, “Plant growth regulator and a method of producing the regulator” (Dainichiseika Color & Chemicals Mfg. Co., Ltd., priority 2003, published 2004).
